According to the supplement of paper PMC8967900:

Columns and labels:
Experiment in all cases: selective drug sensitivity score (sDSS, relative to normal bone marrow) (sDSS (score)); higher = more potent and effective on the cell line relative to normal bone marrow cells
Details in all cases: 72 h
COG-LL-402h = tested on: COG-LL-402h
TMD5 = tested on: TMD5
MN-60 = tested on: MN-60
REH = tested on: REH
CCRF-HSB2 = tested on: CCRF-HSB2
PEER = tested on: PEER
SUP-B15 = tested on: SUP-B15
697 = tested on: 697
NALM-16 = tested on: NALM-16
380 = tested on: 380
MHH-CALL-2 = tested on: MHH-CALL-2
COG-LL-394h = tested on: COG-LL-394h
HPB-ALL = tested on: HPB-ALL
KASUMI-10 = tested on: KASUMI-10
COG-LL-319h = tested on: COG-LL-319h
KASUMI-9 = tested on: KASUMI-9
MOLT-4 = tested on: MOLT-4
P12-ICHIKAWA = tested on: P12-ICHIKAWA
COG-LL-332h = tested on: COG-LL-332h
DND-41 = tested on: DND-41
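Further: ALL cell lines in 384-well plates, five doses spanning 10,000-fold, each plate scaled between vehicle and 100 µmol/L benzalkonium chloride controls, sDSS an adapted area-under-curve metric.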

Row | SMILES | selective drug sensitivity score (COG-LL-402h) | selective drug sensitivity score (TMD5) | selective drug sensitivity score (MN-60) | selective drug sensitivity score (REH) | selective drug sensitivity score (CCRF-HSB2) | selective drug sensitivity score (PEER) | selective drug sensitivity score (SUP-B15) | selective drug sensitivity score 697 | selective drug sensitivity score (NALM-16) | selective drug sensitivity score 380 | selective drug sensitivity score (MHH-CALL-2) | selective drug sensitivity score (COG-LL-394h) | selective drug sensitivity score (HPB-ALL) | selective drug sensitivity score (KASUMI-10) | selective drug sensitivity score (COG-LL-319h) | selective drug sensitivity score (KASUMI-9) | selective drug sensitivity score (MOLT-4) | selective drug sensitivity score (P12-ICHIKAWA) | selective drug sensitivity score (COG-LL-332h) | selective drug sensitivity score (DND-41)
1 | C=C1C[C@@H]2[C@H](CC[C@]3(C)C(=O)CC[C@@H]23)[C@@]2(C)C=CC(=O)C=C12 [Exemestane] (top concentration 10000 nM) | 2.2 | -0.1 | -1.9 | -1.9 | -1 | -1.5 | 1.1 | -0.9 | -1.9 | 7.7 | -0.9 | -0.4 | 5.5 | -1.9 | 10 | -0.8 | -1.9 | -1.9 | 2.4 | -1.9
2 | COc1cc2c(Oc3ccc(NC(=O)C4(C(=O)Nc5ccc(F)cc5)CC4)cc3F)ccnc2cc1OCCCN1CCOCC1 [Foretinib] (top concentration 1000 nM) | 1.64 | 2.64 | -4.46 | 0.24 | 6.24 | 5.04 | 8.74 | 2.24 | 1.04 | -0.56 | 7.04 | 1.84 | 3.34 | 17.8 | 3.44 | -0.06 | 0.64 | 1.34 | 4.74 | -4.46
3 | COc1cc(Nc2ncc(F)c(Nc3ccc4c(n3)N(COP(=O)(O)O)C(=O)C(C)(C)O4)n2)cc(OC)c1OC [Fostamatinib] (top concentration 2500 nM) | 3.46 | -2.84 | -1.34 | -1.84 | 4.46 | 0.66 | 0.96 | 3.16 | -1.44 | -2.84 | 0.56 | -1.54 | -1.94 | 8.66 | 15.3 | 1.76 | -2.04 | -2.84 | -0.44 | -0.64
4 | CC1(C)OCCn2c1nc1c(N3CCOCC3)nc(-c3cnc(N)nc3)nc12 [GDC-0084] (top concentration 10000 nM) | 7.5 | 6.6 | 5.2 | 8.8 | 6.1 | 2 | 5.1 | 8.2 | 2.5 | 15 | 11.2 | -0.3 | 3.2 | 3.9 | 3 | 9.5 | 6.9 | 4.1 | 3.7 | 1.8
5 | CC(C)c1cc(-c2n[nH]c(=O)n2-c2ccc3c(ccn3C)c2)c(O)cc1O [Ganetespib] (top concentration 1000 nM) | 4.54 | -5.36 | -5.06 | 0.54 | 4.34 | -1.86 | 1.74 | 1.24 | -2.76 | 2.74 | -1.36 | -3.26 | 0.64 | 4.64 | 1.14 | 0.14 | 3.14 | -0.96 | 6.64 | 2.94
6 | CCc1nc(C(N)=O)c(Nc2ccc(N3CCC(N4CCN(C)CC4)CC3)c(OC)c2)nc1NC1CCOCC1 [Gilteritinib] (top concentration 1000 nM) | 1.58 | -2.52 | -2.52 | -2.52 | 0.08 | -2.22 | -2.42 | 1.88 | -2.52 | -2.52 | -1.32 | 1.78 | -1.62 | 10.4 | 13.6 | 2.88 | -2.52 | -2.52 | -2.52 | -2.52
7 | CCN(CC)Cc1ccc2cc(COC(=O)Nc3ccc(C(=O)NO)cc3)ccc2c1 [Givinostat] (top concentration 1000 nM) | 12.9 | -0.1 | -1.2 | 0.2 | 4.5 | 6.1 | 8.1 | 4.8 | -1 | 6.9 | 8.6 | 2.4 | 6.3 | 4.7 | 10.1 | 7.6 | 2.1 | 3.1 | -0.3 | 2.4
8 | COCCNCc1ccc(-c2cc3nccc(Oc4ccc(NC(=S)NC(=O)Cc5ccc(F)cc5)cc4F)c3s2)nc1 [Glesatinib] (top concentration 2500 nM) | -1.76 | 2.74 | -1.96 | 4.44 | 11.7 | 4.54 | 7.24 | 0.04 | 0.34 | -1.96 | 0.94 | 0.84 | -0.26 | 8.74 | 3.74 | -0.36 | -0.96 | -1.66 | 4.54 | 0.44
9 | C=CC(=O)N1CCC[C@@H](n2nc(-c3ccc(Oc4ccccc4)cc3)c3c(N)ncnc32)C1 [Ibrutinib] (top concentration 1000 nM) | 9.1 | 0.1 | 0 | 0 | 7 | 0.6 | 10 | 2.2 | 0 | 0.9 | 0.1 | 0 | 1.5 | 0 | 5.2 | 1.3 | 1.4 | 0 | 2.4 | 0
10 | CC[C@H](Nc1ncnc2[nH]cnc12)c1nc2cccc(F)c2c(=O)n1-c1ccccc1 [Idelalisib] (top concentration 10000 nM) | 5.34 | 8.84 | -2.16 | 2.74 | 1.24 | -2.16 | -2.16 | 1.84 | -2.16 | 5.74 | 11.3 | -2.16 | -2.16 | -0.26 | 1.74 | 7.54 | -1.36 | -1.26 | 0.04 | -1.16
11 | O=C(Nc1ccncc1)C(=O)c1cn(Cc2ccc(Cl)cc2)c2ccccc12 [Indibulin] (top concentration 10000 nM) | 3.64 | 3.44 | 1.84 | 4.14 | 11.2 | 11.7 | 11.8 | 12 | 9.34 | 8.74 | 5.74 | 1.54 | 14.2 | 11.3 | 17 | 12 | 9.64 | 6.54 | 6.34 | 5.54
12 | CC(C)C[C@H](NC(=O)CNC(=O)c1cc(Cl)ccc1Cl)B(O)O [Ixazomib] (top concentration 1000 nM) | 3.46 | 4.06 | -1.84 | 6.76 | 8.86 | 7.66 | 11.5 | 5.56 | 0.66 | 5.56 | 5.26 | 5.26 | 8.46 | 3.16 | 6.06 | 6.56 | 5.46 | 5.76 | 8.16 | 9.36
13 | CC(C)NC(=O)COc1cccc(-c2nc(Nc3ccc4[nH]ncc4c3)c3ccccc3n2)c1 [KD025] (top concentration 5000 nM) | -5.36 | -3.16 | -5.36 | -5.36 | -3.86 | -1.56 | 2.14 | -0.66 | -1.16 | -5.36 | 3.94 | -1.36 | -3.26 | -5.36 | -1.06 | 4.04 | -2.76 | -4.06 | -0.56 | -5.36
14 | Nc1cccc2c1CN(C1CCC(=O)NC1=O)C2=O (stereo not given) [Lenalidomide] (top concentration 100000 nM) | -2.28 | 5.02 | -2.28 | -2.28 | 0.22 | -1.28 | -2.28 | -2.28 | -0.38 | 1.62 | 1.92 | -2.28 | -2.28 | 3.22 | -1.78 | 7.42 | -2.28 | -2.28 | 0.22 | 2.12
15 | Sc1ncnc2nc[nH]c12 [Mercaptopurine] (top concentration 10000 nM) | 6.6 | 0 | 6.6 | 17 | 12.6 | 6.7 | 12.7 | 8 | 7.9 | 7.4 | 13.4 | 0.5 | 14.9 | 6.9 | 17.7 | 15.4 | 8.7 | 9.6 | 15.5 | 11.1
16 | Cc1ccc(C(=O)Nc2ccc(Oc3cc4cnn(C)c4cc3-c3cn[nH]c3)c(F)c2)c(=O)n1-c1ccc(F)cc1 [Merestinib] (top concentration 1000 nM) | -0.62 | -0.62 | 1.38 | -0.62 | -0.22 | -0.22 | -0.62 | 0.48 | 2.58 | -0.62 | 9.68 | -0.62 | -0.62 | 14.8 | -0.62 | 0.18 | -0.62 | -0.62 | -0.62 | -0.62
17 | CNC(=O)c1nn(C)c2c1C(C)(C)Cc1cnc(Nc3ccc(N4CCN(C)CC4)cc3)nc1-2 [Milciclib] (top concentration 10000 nM) | 12 | -1.16 | 2.04 | 4.44 | 13.9 | 5.84 | 8.14 | 12.5 | 3.34 | -0.06 | 9.54 | 1.74 | 4.44 | 12.6 | 7.64 | 9.94 | 3.84 | 2.34 | 3.24 | 9.04
18 | N#CCNC(=O)c1ccc(-c2ccnc(Nc3ccc(N4CCOCC4)cc3)n2)cc1 [Momelotinib] (top concentration 10000 nM) | -0.12 | -4.72 | -7.22 | -4.82 | 1.08 | 1.08 | 0.88 | 2.68 | -8.32 | -9.62 | -2.22 | -3.92 | -8.52 | 0.98 | 0.28 | -0.12 | -4.72 | -0.12 | -0.82 | -0.32
